EC50 and Emax data for 14 molecules are collected here from patent US9834542B2, “LXR modulators” (BRISTOL-MYERS SQUIBB COMPANY, priority 2013, dated 2017).

In the assay the target is T1, LXRβ (Homo sapiens, UniProt P55055).
T1 construct: Co-transfection expression plasmids, comprising full-length LXRα (pCMX-h LXRα[…] or LXRβ (pCMX-hLXRβ)); expressed in transfected cells; host or cells: CV-1 African Green Monkey Kidney Cells
T1 sequence (P55055 1-460): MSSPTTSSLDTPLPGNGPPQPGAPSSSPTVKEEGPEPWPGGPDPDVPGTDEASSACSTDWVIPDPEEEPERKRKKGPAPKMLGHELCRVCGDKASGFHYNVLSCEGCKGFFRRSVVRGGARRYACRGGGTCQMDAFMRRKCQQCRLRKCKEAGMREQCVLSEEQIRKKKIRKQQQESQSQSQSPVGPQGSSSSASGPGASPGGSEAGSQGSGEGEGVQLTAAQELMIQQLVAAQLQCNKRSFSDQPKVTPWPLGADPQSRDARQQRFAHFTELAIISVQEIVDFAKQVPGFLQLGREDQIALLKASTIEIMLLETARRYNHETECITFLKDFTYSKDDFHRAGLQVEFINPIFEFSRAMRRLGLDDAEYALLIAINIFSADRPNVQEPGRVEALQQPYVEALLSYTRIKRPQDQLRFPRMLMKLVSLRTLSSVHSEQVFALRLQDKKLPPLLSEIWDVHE
T1 sequence (P19793 1-462 partner): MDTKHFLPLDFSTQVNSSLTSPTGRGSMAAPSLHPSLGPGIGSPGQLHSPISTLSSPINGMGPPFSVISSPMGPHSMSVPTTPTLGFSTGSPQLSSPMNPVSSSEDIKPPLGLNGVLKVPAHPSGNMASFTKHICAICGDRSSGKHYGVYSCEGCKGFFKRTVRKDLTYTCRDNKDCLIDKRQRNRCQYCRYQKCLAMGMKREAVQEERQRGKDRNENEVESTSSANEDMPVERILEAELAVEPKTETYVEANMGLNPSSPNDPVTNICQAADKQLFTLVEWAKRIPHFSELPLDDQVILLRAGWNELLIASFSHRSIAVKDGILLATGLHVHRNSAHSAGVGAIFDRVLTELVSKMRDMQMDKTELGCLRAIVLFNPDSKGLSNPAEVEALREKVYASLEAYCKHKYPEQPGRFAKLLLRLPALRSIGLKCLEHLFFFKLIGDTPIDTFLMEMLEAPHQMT
Kind of assay: Co-transfection assay (LXRE luciferase reporter), LXRβ. It is filed as cell-based. The settings on record: for EC50: CV-1 cells transfected with pCMX-hLXRβ and LXREx1-Tk-Luciferase, 20 hours incubation; for Emax: LXRβ co-transfection, relative to high control 1-(2,4-difluorobenzyl)-2-oxo-6-(4-phenoxyphenyl)-4-(trifluoromethyl)-1,2-dihydropyridine-3-carbonitrile, read-out: % Efficacy. An excerpt:
To measure the ability of compounds to activate or inhibit the transcriptional activity of LXR in a cell based assay, the co-transfection assay was used. It has been shown that LXR functions as a heterodimer with RXR. For the co-transfection assay, expression plasmids for LXRα and LXRβ are introduced separately via transient transfection into mammalian cells along with a luciferase reporter plasmid that contains one copy of a DNA sequence that is bound by LXR-RXR heterodimers (LXRE; Willy, P. et. al. 1995). LXRs heterodimerize with the endogenous RXR. Treatment of transfected cells with an LXR agonist increases the transcriptional activity of LXR, which is measured by an increase in luciferase activity.
CV-1 African Green Monkey Kidney Cells
Co-transfection expression plasmids, comprising full-length LXRα (pCMX-h LXRα[…] or LXRβ (pCMX-hLXRβ), reporter plasmid (LXREx1-Tk-Luciferase), and control (pCMX-Galactosidase expression vector) (Willey et al. Genes & Development 9 1033-1045 (1995)).
CV-1 cells were prepared 24 hours prior to the experiment by plating them into T-175 flasks or 500 cm^2 dishes in order to achieve 70-80% confluency on the day of the transfection. The number of cells to be transfected was determined by the number of plates to be screened. Each well of a 384 well plate requires 1.5×10^4 cells. DNA Transfection Reagent was prepared by mixing the required plasmid DNAs with a cationic lipid transfection reagent Transit 2020 (Mirus Bio) for CV1 by following the instructions provided with the reagents. Optimal DNA amounts were determined empirically per cell line and size of vessel to be transfected. For each T175 cm^2 flask a total of 59 ug for CV1 of DNA, 133 uL Transit2020 and 4.5 mL DMEM for CV1 was mixed and added. Cells were then incubated at least 5 hours at 37° C. to prepare screening cells.
Luciferase assay reagent (*Steady-Glo Luciferase Assay System by Promega, CAT#E2550) was prepared by combining before use:
Assay plates were prepared by dispensing 5 μL of compound per well of a 384 well plate to achieve final compound concentration of 10 μM and no more than 0.5% DMSO. Media was removed from the screening cells, the cells trypsinized, harvested cells by centrifugation, counted, and plated at a density of approximately 1.5×10^4 cells in the 384 well assay plate prepared above in a volume of about 95 uL. Assay plates containing both compounds and screening cells (100 μL in total volume) were incubated for 20 hours at 37° C.
After incubation with compounds, media was removed from the cells and luciferase assay reagent (50 μL/well) added. After ˜2 minutes at ambient temperature, the assay plates were read on a luminometer (PE Biosystems Northstar reader with on-board injectors, or Envision(Perkin Elmer) or equivalent).
The LXR/LXRE co-transfection assay can be used to establish the EC50/IC50 values for potency and percent activity or inhibition for efficacy. Efficacy defines the activity of a compound relative to a high control 1-(2,4-difluorobenzyl)-2-oxo-6-(4-phenoxyphenyl)-4-(trifluoromethyl)-1,2-dihydropyridine-3-carbonitrileor a low control (DMSO/vehicle). The dose response curves are generated from a 11 point curve with concentrations differing by ½ LOG units. Each point represents the average of 2 wells of data from duplicate 384 well plate.
The data from this assay is fitted to the following equation, from which the EC50 value may be solved: Y=Bottom+(Top−Bottom)/(1+10^((logEC50-X)*HillSlope)).
The EC50/IC50 is therefore defined as the concentration at which an agonist or antagonist elicits a response that is halfway between the Top (maximum) and Bottom (baseline) values. The EC50/IC50 values represented are the averages of at least 2 and normally 3 independent experiments. […]

On to `Cc1cc(-c2cnnn2-c2cc(-c3cccc(S(C)(=O)=O)c3)ccc2-n2cc(C(F)(F)F)nc2C)ccc1F` [Example 28, 5-(4-fluoro-3-methylphenyl)-1-{3′-(methylsulfonyl)-4-[2-methyl-4-(trifluoromethyl)-1H-imidazol-1-yl]biphenyl-3-yl}-1H-1,2,3-triazole], for which the EC50 amounted to 589 nM and the Emax was determined as 117%.

Turning to `Cc1nc(C(F)(F)F)cn1-c1ccc(-c2cccc(S(C)(=O)=O)c2)cc1-n1nncc1-c1ccc2c(c1)OCO2` [Example 29, 5-(1,3-benzodioxol-5-yl)-1-{3′-(methylsulfonyl)-4-[2-methyl-4-(trifluoromethyl)-1H-imidazol-1-yl]biphenyl-3-yl}-1H-1,2,3-triazole], the EC50 is 605 nM and the Emax came to 65%.

In the case of `CCCCOc1ccc(-c2cnnn2-c2cc(-c3cccc(S(C)(=O)=O)c3)ccc2-n2cc(C(F)(F)F)nc2C)cc1` [Example 30, 5-[4-(butyloxy)phenyl]-1-{3′-(methylsulfonyl)-4-[2-methyl-4-(trifluoromethyl)-1H-imidazol-1-yl]biphenyl-3-yl}-1H-1,2,3-triazole], the EC50 worked out at 605 nM and the Emax amounted to 85%.

In the case of `Cc1nc(C(F)(F)F)cn1-c1ccc(-c2cccc(S(C)(=O)=O)c2)cc1-n1nncc1-c1ccc(OCC(F)(F)F)cc1` [Example 31, 1-{3′-(methylsulfonyl)-4-[2-methyl-4-(trifluoromethyl)-1H-imidazol-1-yl]biphenyl-3-yl}-5-{4-[(2,2,2-trifluoroethyl)oxy]phenyl}-1H-1,2,3-triazole], it took 606 nM to reach a half-maximal effect (EC50) and the Emax turned out to be 90%.

Take `Cc1nc(C(F)(F)F)cn1-c1ccc(-c2cccc(S(C)(=O)=O)c2)cc1-n1nncc1-c1ccc(SC(F)(F)F)cc1` [Example 32, 1-{3′-(methylsulfonyl)-4-[2-methyl-4-(trifluoromethyl)-1H-imidazol-1-yl]biphenyl-3-yl}-5-{4-[(trifluoromethyl)thio]phenyl}-1H-1,2,3-triazole]: the EC50 worked out at 633 nM and the Emax was found to be 84%.

For the molecule `Cc1nc(C(F)(F)F)cn1-c1ccc(-c2cccc(S(C)(=O)=O)c2)cc1-n1nncc1-c1ccc(F)c(Cl)c1` [Example 33, 5-(3-chloro-4-fluorophenyl)-1-{3′-(methylsulfonyl)-4-[2-methyl-4-(trifluoromethyl)-1H-imidazol-1-yl]biphenyl-3-yl}-1H-1,2,3-triazole], the EC50 is 649 nM and the Emax came to 103%.

With `Cc1nc(C(F)(F)F)cn1-c1ccc(-c2cccc(S(C)(=O)=O)c2)cc1-n1nncc1-c1ccc(F)c(F)c1` [Example 34, 5-(3,4-difluorophenyl)-1-{3′-(methylsulfonyl)-4-[2-methyl-4-(trifluoromethyl)-1H-imidazol-1-yl]biphenyl-3-yl}-1H-1,2,3-triazole], the EC50 worked out at 661 nM and the Emax turned out to be 94%.

Regarding `Cc1nc(C(F)(F)F)cn1-c1ccc(-c2cccc(S(C)(=O)=O)c2)cc1-n1nncc1-c1ccc(Cl)c(OC(F)(F)F)c1` [Example 35, 5-{4-chloro-3-[(trifluoromethyl)oxy]phenyl}-1-{3′-(methylsulfonyl)-4-[2-methyl-4-(trifluoromethyl)-1H-imidazol-1-yl]biphenyl-3-yl}-1H-1,2,3-triazole], it took 663 nM to reach a half-maximal effect (EC50) and the Emax was 68%.

For `CC(=O)c1ccc(-c2cnnn2-c2cc(-c3cccc(S(C)(=O)=O)c3)ccc2-n2cc(C(F)(F)F)nc2C)cc1` [Example 36, 1-[4-(1-{3′-(methylsulfonyl)-4-[2-methyl-4-(trifluoromethyl)-1H-imidazol-1-yl]biphenyl-3-yl}-1H-1,2,3-triazol-5-yl)phenyl]ethanone], the EC50 stood at 724 nM and the Emax came to 60%.

With `Cc1nc(C(F)(F)F)cn1-c1ccc(-c2cccc(S(C)(=O)=O)c2)cc1-n1nncc1-c1cccc(OC(F)F)c1` [Example 37, 5-{3-[(difluoromethyl)oxy]phenyl}-1-{3′-(methylsulfonyl)-4-[2-methyl-4-(trifluoromethyl)-1H-imidazol-1-yl]biphenyl-3-yl}-1H-1,2,3-triazole], a half-maximal effect (EC50) was put at 758 nM and the Emax was 96%.

Regarding `Cc1nc(C(F)(F)F)cn1-c1ccc(-c2cccc(S(C)(=O)=O)c2)cc1-n1nncc1-c1ccc(Cl)cc1F` [Example 39, 5-(4-chloro-2-fluorophenyl)-1-{3′-(methylsulfonyl)-4-[2-methyl-4-(trifluoromethyl)-1H-imidazol-1-yl]biphenyl-3-yl}-1H-1,2,3-triazole], the EC50 is 860 nM and the Emax came to 92%.

As for `Cc1nc(C(F)(F)F)cn1-c1ccc(-c2cccc(S(C)(=O)=O)c2)cc1-n1nncc1-c1ccc(F)cc1F` [Example 40, 5-(2,4-difluorophenyl)-1-{3′-(methylsulfonyl)-4-[2-methyl-4-(trifluoromethyl)-1H-imidazol-1-yl]biphenyl-3-yl}-1H-1,2,3-triazole], the response was half-maximal at 954 nM (EC50) and the Emax was found to be 87%.

On to `Cc1nc(C(F)(F)F)cn1-c1ccc(-c2cccc(S(C)(=O)=O)c2)cc1-n1nncc1-c1ccc(Cl)c(C#N)c1` [Example 41, 2-chloro-5-(1-{3′-(methylsulfonyl)-4-[2-methyl-4-(trifluoromethyl)-1H-imidazol-1-yl]biphenyl-3-yl}-1H-1,2,3-triazol-5-yl)benzonitrile], for which the EC50 is 1050 nM and the Emax was 74%.

With `COc1ccc(-c2cnnn2-c2cc(-c3cccc(S(C)(=O)=O)c3)ccc2-n2cc(C(F)(F)F)nc2C)cc1OC(F)F` [Example 42, 5-{3-[(difluoromethyl)oxy]-4-(methyloxy)phenyl}-1-{3′-(methylsulfonyl)-4-[2-methyl-4-(trifluoromethyl)-1H-imidazol-1-yl]biphenyl-3-yl}-1H-1,2,3-triazole], the EC50 turned out to be 1060 nM and the Emax is 43%.
